This note sets out measurements from ChEMBL document CHEMBL3638030, “IC50 data for the L-type calcium channel extracted from a set of literature articles”.

A word on the IC50: it is the point on the concentration scale where inhibition reaches its midpoint.

Assay [1] can be described thus: Inhibition of Cav1.2 calcium current measured using whole cell patch clamp in mouse/rat NG108-15. The format is functional, cell-based. Also noted: ca sol conc 1.8 mM, temp 20-25 C. (In general: In patch-clamp work, channel activity is measured electrically.)
For assay [2], the target named is T1, Voltage-dependent L-type calcium channel subunit alpha-1C (Rattus norvegicus, UniProt P22002). The assay is described as follows: (§1) Inhibition of Cav1.2 calcium current measured using whole cell patch clamp in rat myocyte. In kind it is functional, Heart, Cardiac Muscle Cell. Further details: ca sol conc 1.8 mM.
Assay [3] deals with T1, Voltage-dependent L-type calcium channel subunit alpha-1C. The experiment in a line: (§2) Inhibition of Cav1.2 calcium current measured using whole cell patch clamp in rat ventricular myocytess. In kind it is functional, cell-based, Heart, Ventricular myocyte. Further details: ca sol conc 1.8 mM, temp 20-22 C.
Assay [4] has as its target T2, Voltage-dependent L-type calcium channel subunit alpha-1C (Mus musculus, UniProt Q01815). The experiment in a line: Inhibition of Cav1.2 calcium current measured using whole cell patch clamp in mouse ventricular myocytes. In kind it is functional, cell-based, Heart, Ventricular myocyte. Also noted: ca sol conc 1.8 mM, temp room.
Assay [5] has as its target T3, Voltage-dependent L-type calcium channel subunit alpha-1C (Oryctolagus cuniculus, UniProt P15381). The experiment in a line: (§3) Inhibition of Cav1.2 calcium current measured using whole cell patch clamp in rabbit ventricular myocytes. The format is functional, cell-based, Heart, Ventricular myocyte. Also noted: ca sol conc 1.8 mM, temp 23 C.
In assay [6] the target is T3, Voltage-dependent L-type calcium channel subunit alpha-1C. The assay is described as §3. In kind it is functional, cell-based, Heart, Ventricular myocyte. Also noted: ca sol conc 1.8 mM, temp 23 C. The source holds these as a separate data set.
The target in assay [7] is T1, Voltage-dependent L-type calcium channel subunit alpha-1C. Described as §2. Further details: ca sol conc 2 mM, temp 22-24 C. In kind it is functional, cell-based, Heart, Ventricular myocyte.
The target of assay [8] is T4, Voltage-dependent L-type calcium channel subunit alpha-1C (Cavia porcellus, UniProt O35505). The assay is described as follows: (§4) Inhibition of Cav1.2 calcium current measured using whole cell patch clamp in guinea pig ventricular myocytes. In kind it is functional, cell-based, Heart, Ventricular myocyte. Further details: ca sol conc 1.8 mM, temp 37 C.
Assay [9] has as its target T4, Voltage-dependent L-type calcium channel subunit alpha-1C. The experiment in a line: Inhibition of Cav1.2 calcium current measured using whole cell patch clamp in guinea pig tracheal smooth muscle cells. Also noted: ca sol conc 5 - Barium mM, temp 35 C. The format is functional, tissue-based, Trachea.
Assay [10] deals with T2, Voltage-dependent L-type calcium channel subunit alpha-1C. The experiment in a line: Inhibition of Cav1.2 calcium current measured using in mouse dorsal root ganglion neuron. In kind it is functional, tissue-based. Further details: temp 20-23 C.
Assay [11] concerns the target T1, Voltage-dependent L-type calcium channel subunit alpha-1C. The assay is described as follows: (§5) Inhibition of Cav1.2 calcium current measured using whole cell patch clamp in rat ventricular myocytes. Further details: ca sol conc 2 mM, temp 22-24 C. The format is functional, cell-based, Heart, Ventricular myocyte.
Assay [12] addresses T3, Voltage-dependent L-type calcium channel subunit alpha-1C. Described as §3. In kind it is functional, cell-based, Heart, Ventricular myocyte. Further details: ca sol conc 1.8 mM, temp 34 C.
Assay [13] has as its target T1, Voltage-dependent L-type calcium channel subunit alpha-1C. The description is as §1. Further details: ca sol conc 1.2 mM, temp 22 C. The format is functional, Heart, Cardiac Muscle Cell.
Assay [14] has the same target. The experiment in a line: Inhibition of Cav1.2 calcium current measured using whole cell patch clamp in rat Vascular smooth muscle cells. The format is functional, cell-based. Also noted: ca sol conc 0 (Barium used instead) mM, temp 22 C.
Assay [15] concerns the target T4, Voltage-dependent L-type calcium channel subunit alpha-1C. The assay is described as follows: Inhibition of Cav1.2 calcium current measured using whole Cell patch clamp in guinea pig ventricular myocytes. Further details: ca sol conc 1.8 mM. In kind it is functional, cell-based, Heart, Ventricular myocyte.
Assay [16] has as its target T1, Voltage-dependent L-type calcium channel subunit alpha-1C. Described as §5. The format is functional, cell-based, Heart, Ventricular myocyte. Further details: ca sol conc 1.8 mM, temp 22-26 C.
In assay [17] the target is T4, Voltage-dependent L-type calcium channel subunit alpha-1C. The description is as §4. In kind it is functional, cell-based, Heart, Ventricular myocyte. Further details: ca sol conc 1.8 mM, temp 36 C.
Assay [18] addresses T5, Voltage-dependent L-type calcium channel subunit alpha-1C (Homo sapiens, UniProt Q13936). The experiment in a line: (§6) Inhibition of Cav1.2 calcium current measured using whole cell patch clamp in human atrial myocytes. Further details: ca sol conc 1.8 mM, temp 25 C. In kind it is functional, cell-based, Heart, Cardiac Muscle Cell.
The target in assay [19] is T5, Voltage-dependent L-type calcium channel subunit alpha-1C. The description is as §6. The format is functional, cell-based, Heart, Cardiac Muscle Cell. Further details: ca sol conc 2 mM, temp 22/37 C.
The target in assay [20] is T4, Voltage-dependent L-type calcium channel subunit alpha-1C. Described as §4. In kind it is functional, cell-based, Heart, Ventricular myocyte. Also noted: ca sol conc 2 mM, temp 22/37 C.
For assay [21] the target is unchanged. Described as §4. In kind it is functional, cell-based, Heart, Ventricular myocyte. Also noted: ca sol conc 1.2 mM, temp 24 pm 1 C.
For assay [22] the target is unchanged. Described as §4. In kind it is functional, cell-based, Heart, Ventricular myocyte. Further details: ca sol conc 2 mM, temp 21-23 C.
The target is the same in assay [23]. The assay is described as §4. The format is functional, cell-based, Heart, Ventricular myocyte. Further details: ca sol conc 1.8 mM, temp 20-24 C.
Assay [24] shares this target. The assay is described as follows: Inhibition of Cav1.2 calcium current measured using whole cell patch clamp in guinea pig atrial myocytes. In kind it is functional, cell-based, Heart, Cardiac Muscle Cell. Further details: ca sol conc 2 mM, temp 22 pm 1 C.
The target is the same in assay [25]. Described as §4. The format is functional, cell-based, Heart, Ventricular myocyte. Further details: ca sol conc 1.8 mM, temp 35 pm 0.5 C.

T1 sequence (P22002 whole entry): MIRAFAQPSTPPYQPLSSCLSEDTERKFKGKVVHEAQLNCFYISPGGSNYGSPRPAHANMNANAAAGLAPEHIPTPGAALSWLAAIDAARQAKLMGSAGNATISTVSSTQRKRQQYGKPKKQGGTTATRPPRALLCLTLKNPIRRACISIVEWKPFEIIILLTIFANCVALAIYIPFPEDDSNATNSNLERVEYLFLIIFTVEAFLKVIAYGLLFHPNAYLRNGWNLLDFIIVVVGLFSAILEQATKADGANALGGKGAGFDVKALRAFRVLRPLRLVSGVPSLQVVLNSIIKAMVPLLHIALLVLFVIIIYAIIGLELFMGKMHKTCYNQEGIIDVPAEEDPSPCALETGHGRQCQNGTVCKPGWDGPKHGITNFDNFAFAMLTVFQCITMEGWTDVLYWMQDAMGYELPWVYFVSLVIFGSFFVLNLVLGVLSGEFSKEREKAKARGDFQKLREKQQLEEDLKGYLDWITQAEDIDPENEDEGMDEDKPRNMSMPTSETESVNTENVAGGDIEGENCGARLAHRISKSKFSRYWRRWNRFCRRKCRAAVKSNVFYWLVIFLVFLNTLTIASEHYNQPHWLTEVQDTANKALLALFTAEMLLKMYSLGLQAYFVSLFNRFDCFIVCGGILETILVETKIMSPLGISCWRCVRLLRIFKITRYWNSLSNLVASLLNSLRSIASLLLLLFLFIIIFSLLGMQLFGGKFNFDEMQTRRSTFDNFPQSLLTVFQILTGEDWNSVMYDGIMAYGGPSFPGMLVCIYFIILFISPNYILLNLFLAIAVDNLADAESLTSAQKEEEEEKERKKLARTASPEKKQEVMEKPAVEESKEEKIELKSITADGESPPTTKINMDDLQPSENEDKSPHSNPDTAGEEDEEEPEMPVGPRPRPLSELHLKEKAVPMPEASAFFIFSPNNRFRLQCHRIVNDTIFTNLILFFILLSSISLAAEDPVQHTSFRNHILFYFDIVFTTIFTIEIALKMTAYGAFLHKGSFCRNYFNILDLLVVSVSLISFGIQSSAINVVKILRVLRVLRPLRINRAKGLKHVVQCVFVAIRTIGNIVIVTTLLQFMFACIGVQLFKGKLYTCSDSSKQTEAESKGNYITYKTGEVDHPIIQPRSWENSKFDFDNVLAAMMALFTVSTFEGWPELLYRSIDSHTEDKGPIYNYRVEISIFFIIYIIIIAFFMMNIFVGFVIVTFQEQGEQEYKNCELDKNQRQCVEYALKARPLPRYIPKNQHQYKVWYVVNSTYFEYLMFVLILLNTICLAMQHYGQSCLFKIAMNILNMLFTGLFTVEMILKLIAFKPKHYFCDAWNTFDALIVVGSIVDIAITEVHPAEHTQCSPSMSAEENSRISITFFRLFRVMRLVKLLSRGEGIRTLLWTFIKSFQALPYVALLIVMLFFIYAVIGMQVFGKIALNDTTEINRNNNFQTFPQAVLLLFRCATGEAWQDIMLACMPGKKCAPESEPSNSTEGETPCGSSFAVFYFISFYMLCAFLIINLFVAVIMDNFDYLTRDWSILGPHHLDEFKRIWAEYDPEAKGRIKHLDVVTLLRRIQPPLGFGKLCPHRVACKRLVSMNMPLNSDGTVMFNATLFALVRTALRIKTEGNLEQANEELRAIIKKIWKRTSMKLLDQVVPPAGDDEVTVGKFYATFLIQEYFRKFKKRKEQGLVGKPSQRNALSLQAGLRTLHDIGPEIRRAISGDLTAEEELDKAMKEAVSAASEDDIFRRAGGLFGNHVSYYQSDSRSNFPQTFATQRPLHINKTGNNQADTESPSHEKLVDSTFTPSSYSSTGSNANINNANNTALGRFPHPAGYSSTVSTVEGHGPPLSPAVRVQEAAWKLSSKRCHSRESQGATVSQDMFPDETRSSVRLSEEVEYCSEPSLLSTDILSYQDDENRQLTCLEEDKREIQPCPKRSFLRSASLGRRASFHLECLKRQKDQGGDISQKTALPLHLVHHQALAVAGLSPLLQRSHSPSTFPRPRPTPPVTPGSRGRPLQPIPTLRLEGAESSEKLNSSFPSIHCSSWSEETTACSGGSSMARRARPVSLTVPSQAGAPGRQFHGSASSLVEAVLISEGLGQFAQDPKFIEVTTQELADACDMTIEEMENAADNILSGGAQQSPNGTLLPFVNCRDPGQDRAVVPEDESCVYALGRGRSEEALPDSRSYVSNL
T3 sequence (P15381 whole entry): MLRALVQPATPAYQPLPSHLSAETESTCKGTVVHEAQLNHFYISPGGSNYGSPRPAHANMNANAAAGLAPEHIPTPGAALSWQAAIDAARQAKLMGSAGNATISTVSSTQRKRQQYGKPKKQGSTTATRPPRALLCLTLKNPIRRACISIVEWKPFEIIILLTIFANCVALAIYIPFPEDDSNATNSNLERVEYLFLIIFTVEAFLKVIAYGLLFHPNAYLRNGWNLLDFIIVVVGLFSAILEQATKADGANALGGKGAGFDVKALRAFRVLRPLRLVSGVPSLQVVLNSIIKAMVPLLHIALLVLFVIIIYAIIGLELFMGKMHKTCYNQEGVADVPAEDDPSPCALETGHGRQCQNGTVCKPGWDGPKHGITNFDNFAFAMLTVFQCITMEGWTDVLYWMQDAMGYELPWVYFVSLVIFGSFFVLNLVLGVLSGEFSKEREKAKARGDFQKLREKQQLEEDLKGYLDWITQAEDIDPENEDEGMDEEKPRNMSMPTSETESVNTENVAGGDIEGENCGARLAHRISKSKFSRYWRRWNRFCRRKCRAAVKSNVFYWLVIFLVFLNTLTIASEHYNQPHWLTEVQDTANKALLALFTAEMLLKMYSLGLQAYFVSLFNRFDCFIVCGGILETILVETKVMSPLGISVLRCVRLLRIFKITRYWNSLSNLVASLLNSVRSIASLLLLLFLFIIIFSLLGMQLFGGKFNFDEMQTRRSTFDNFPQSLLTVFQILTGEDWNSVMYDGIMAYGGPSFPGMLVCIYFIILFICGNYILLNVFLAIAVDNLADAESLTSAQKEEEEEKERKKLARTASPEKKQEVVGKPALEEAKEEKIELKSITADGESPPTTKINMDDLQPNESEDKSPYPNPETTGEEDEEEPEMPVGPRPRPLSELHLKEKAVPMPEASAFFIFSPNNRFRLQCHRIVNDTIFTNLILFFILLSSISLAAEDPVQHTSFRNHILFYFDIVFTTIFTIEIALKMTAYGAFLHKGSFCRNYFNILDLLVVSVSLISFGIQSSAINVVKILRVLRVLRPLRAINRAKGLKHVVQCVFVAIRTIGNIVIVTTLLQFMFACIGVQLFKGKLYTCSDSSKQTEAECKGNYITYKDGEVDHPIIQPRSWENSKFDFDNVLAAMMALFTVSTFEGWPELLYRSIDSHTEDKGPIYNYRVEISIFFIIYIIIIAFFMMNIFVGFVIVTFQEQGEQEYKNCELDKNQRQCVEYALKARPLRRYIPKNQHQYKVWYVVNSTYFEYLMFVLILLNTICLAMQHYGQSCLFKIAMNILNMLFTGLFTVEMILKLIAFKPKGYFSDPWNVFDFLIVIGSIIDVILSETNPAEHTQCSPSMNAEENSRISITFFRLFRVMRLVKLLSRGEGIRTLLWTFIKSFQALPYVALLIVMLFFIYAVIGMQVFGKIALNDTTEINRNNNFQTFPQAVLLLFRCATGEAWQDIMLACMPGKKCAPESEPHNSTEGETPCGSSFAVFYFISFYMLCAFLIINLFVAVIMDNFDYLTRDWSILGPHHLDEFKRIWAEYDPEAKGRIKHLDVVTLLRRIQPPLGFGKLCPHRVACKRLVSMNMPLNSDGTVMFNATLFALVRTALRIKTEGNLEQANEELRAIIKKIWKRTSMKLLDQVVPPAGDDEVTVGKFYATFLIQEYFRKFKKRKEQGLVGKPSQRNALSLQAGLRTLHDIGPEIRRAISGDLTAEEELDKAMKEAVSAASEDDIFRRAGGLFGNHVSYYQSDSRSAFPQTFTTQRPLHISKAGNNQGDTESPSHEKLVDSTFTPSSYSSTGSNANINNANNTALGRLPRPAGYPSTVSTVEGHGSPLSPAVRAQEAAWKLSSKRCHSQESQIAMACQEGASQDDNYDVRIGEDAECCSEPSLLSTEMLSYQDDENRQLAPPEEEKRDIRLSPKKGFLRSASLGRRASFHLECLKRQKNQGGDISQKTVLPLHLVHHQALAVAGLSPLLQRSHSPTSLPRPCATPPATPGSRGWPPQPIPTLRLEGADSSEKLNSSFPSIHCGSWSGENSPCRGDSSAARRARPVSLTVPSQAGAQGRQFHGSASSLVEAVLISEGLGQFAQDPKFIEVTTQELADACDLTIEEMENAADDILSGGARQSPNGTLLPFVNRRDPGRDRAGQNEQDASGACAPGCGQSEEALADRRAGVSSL

`Cc1cc(O)c(C(C)C)cc1CN1CCCCC1`: the IC50 in assay [1] came out at 3.6 µM.

With `CC(/N=C(\NC#N)Nc1ccc(OC(F)F)cc1)C(C)(C)C` (stereo not given), in [2], the IC50 was 24.1 µM.

As for `O=C1C=CC[C@H](C[C@@H](O)CCc2ccc(O)cc2)O1`, the half-maximal inhibitory concentration (IC50) in assay [3] worked out at 3.2 µM.

As to `CCN1CCC(CC(NC(=O)c2ccc([N+](=O)[O-])cc2)c2ccc(F)cc2)CC1` (stereo not given), the IC50 in assay [4] was 100 µM.

For the compound `CC(C)(C)OC(=O)N1CC2CC(CN(C[C@H](O)COc3ccc(C#N)cc3)C2)C1`, the IC50 was determined as 1.3 µM in assay [5] and 6 µM in assay [6].

Turning to `CCCCC/C=C\C/C=C\C/C=C/C/C=C\CCCC(=O)NCCO`, the IC50 in [7] is 0.1 µM.

Take `COC(=O)C1=CCCN(C)C1` [ARECOLINE]: in assay [8], the half-inhibitory concentration (IC50) turned out to be 33.7 µM.

For `CN1CCCC(n2nc(Cc3ccc(Cl)cc3)c3ccccc3c2=O)CC1` (stereo not given) [AZELASTINE], the half-maximal inhibitory concentration (IC50) in [9] is 8 µM.

Regarding `CC(C)(c1ccc(O)cc1)c1ccc(O)cc1` [BISPHENOL A], the IC50 in [10] worked out at 35 µM.

`C=C(C)[C@@H]1CCC(C)=C[C@H]1c1c(O)cc(CCCCC)cc1O` [CANNABIDIOL]: in assay [11], the IC50 turned out to be 0.1 µM.

As to `COc1ccccc1OCCNCC(O)COc1cccc2[nH]c3ccccc3c12` (stereo not given) [CARVEDILOL], the IC50 in [12] is 3.59 µM.

As to `CCC1=C[C@@H]2CN3CCc4c([nH]c5ccccc45)[C@@](C(=O)OC)(C2)[C@@H]13` [CATHARANTHINE BASE], the IC50 was found to be 224 µM in [13] and 8.4 µM in [14].

With `Cc1ccc(-c2cc(C(F)(F)F)nn2-c2ccc(S(N)(=O)=O)cc2)cc1` [CELECOXIB], the IC50 in assay [15] was 10.6 µM.

Turning to `Oc1c(CN2CCCC2)cc(Nc2ncnc3ccccc23)cc1CN1CCCC1` [CHANGROLIN], the IC50 in assay [16] was 74.7 µM.

For the compound `CCCCc1oc2ccc(NS(C)(=O)=O)cc2c1C(=O)c1ccc(OCCCN(CCCC)CCCC)cc1` [DRONEDARONE], the IC50 in assay [17] stood at 0.4 µM.

Regarding `CNC1(c2ccccc2Cl)CCCCC1=O` (stereo not given) [KETAMINE], in assay [18], the IC50 came to 1.8 µM.

`CCCOC(C(=O)OC1CCN(C)CC1)(c1ccccc1)c1ccccc1` [PROPIVERINE]: the IC50 in assay [19] came out at 41.7 µM; in assay [20] it was 34.7 µM.

Turning to `CCN(CC)CCCC(C)Nc1c2ccc(Cl)cc2nc2ccc(OC)cc12` (stereo not given) [QUINACRINE], in assay [21], the half-maximal inhibitory concentration (IC50) stood at 5.6 µM.

For the compound `CCCN1CCCC[C@H]1C(=O)Nc1c(C)cccc1C` [ROPIVACAINE], the half-maximal inhibitory concentration (IC50) in assay [22] was 430 µM.

Take `COc1ccc(S(=O)(=O)NCc2cc(CN3CCCC3)c(O)c(CN3CCCC3)c2)cc1` [SULCARDINE]: the 50% inhibitory concentration (IC50) in assay [23] was found to be 69.2 µM.

Consider `CCCC(C)C1(CC)C(=O)NC(=S)NC1=O` (stereo not given) [THIOPENTAL], for which the IC50 in assay [24] stood at 0.28 µM.

`Cc1c(C)c2c(c(C)c1O)CCC(C)(COc1ccc(CC3SC(=O)NC3=O)cc1)O2` (stereo not given) [TROGLITAZONE]: the IC50 in assay [25] came to 0.8 µM.
